{"source": "paper PMC9137037", "about": "(Frontiers in Oncology, 2022)", "key": {"cynomolgus monkeys": {"system": "cynomolgus monkeys", "assay": "ELISA antibody titers, monkey study No.00213519", "format": "in vivo, Macaca fascicularis", "conditions": "monkey 2nd set, 25, 100, 250 µg on days 1, 15, 29, 43, serum days 29, 43, 57, APi2568 as capture", "description": "The non-human primate studies were carried out by the Charles River Laboratories (Ashland, OH USA). All the cynomolgus monkeys (Macaca fascicularis of Chinese origin) were obtained from Charles River Laboratories (Houston, TX, USA). In brief, the animals were approximately 2–4 years old and at the body weight between 2.2 and 3.1 kg at the initial dosing. The animals were kept at the temperature between 19°C and 24°C, humidity 30%–70%, and with 12 h light and 12 h dark light cycle. The Good manufacturing practice (GMP)-manufactured vaccine was used in the non-human primate study. […] Similar to mouse and dog dosing preparation, after the emulsion was prepared, a drop test was performed on each time of dosing to confirm that the emulsion had been prepared properly. […] All the animals’ body weights were monitored weekly after receiving. […]\nEnzyme-linked immunosorbent assay (ELISA) was performed per our lab standard procedure. […] After washing, the antibody was detected using 50 μl of 0.15% H2O2 in 24 mM of citric acid and 5 mM of the sodium phosphate buffer (pH5.2) with 0.5 mg/ml 2, […] (3-ethylbenzthiazole- 6-sulfonic acid, ABTS; Sigma, St. Louis, MO, USA) as the chromophore. […] Absorbance was read at 415 nm using an ELISA microplate reader (SPECTRAmax PLUS384; Molecular Devices, San Jose, CA, USA). The highest dilution at the cutoff absorbance 0.2 were determined as the antibody titer. […]"}, "beagle dogs": {"system": "beagle dogs", "assay": "ELISA antibody titers in sera of immunized beagle dogs", "format": "in vivo, dog", "conditions": "for antibody titers in sera (words): beagle dogs, 1.0, 1.5, 3.0 mg with nor-MDP and ISA 720, ELISA", "description": "In brief, the beagle dogs were purchased from Covance Research Products (Cumberland, VA, USA) and were housed in the Ohio State University Veterinarian Facility Institutional Animal Care Facility. The dogs were housed at 19°C−24°C room temperature with approximately 70% humidity, and 12 h light and 12 h dark–light cycle. The dogs’ body weights were at least 7.5 kg when they received the first immunization. […] The dogs received a total of 4 doses, immunization was done at the rear thigh with two sites of injections, the bleed was collected as indicated time points to monitor the antibody titers, and the body weight of each dog was monitored closely (see Figures 3B, C for detail).\nEnzyme-linked immunosorbent assay (ELISA) was performed per our lab standard procedure. Briefly, a 96-well plate was coated with 100 μl of MVF-PD-1(92-110) peptide as an antigen at 2 μg/ml in phosphate-buffered saline (PBS; Research Products International, Mt Prospect, IL, USA, CAS No. 7647-145) overnight at 4°C. Nonspecific binding sites were blocked for 1 h with 200 μl of PBS with 1% BSA (bovine serum albumin; Thermo Fisher Scientific, Waltham, […], USA, BP9703-100), and the plate was washed with a washing buffer (PBS diluted 0.05% Tween 1% horse serum). […] After washing, the antibody was detected using 50 μl of 0.15% H2O2 in 24 mM of citric acid and 5 mM of the sodium phosphate buffer (pH5.2) with 0.5 mg/ml 2, […] (3-ethylbenzthiazole- 6-sulfonic acid, ABTS; Sigma, St. Louis, MO, USA) as the chromophore. […] Absorbance was read at 415 nm using an ELISA microplate reader (SPECTRAmax PLUS384; Molecular Devices, San Jose, CA, USA). The highest dilution at the cutoff absorbance 0.2 were determined as the antibody titer.\nThis study was designed to monitor the kinetics of how quickly the antibody levels to MVF-PD-1(92-110) diminished after the dosing was stopped. […] We monitored the beagle dogs’ body weight closely during the immunization period ( Figure 3C )."}}, "note": "Where no end group is shown, it is not given here."}
{"sequence": "KLLSLIKGVIVHRLEGVEGPSLGAISLAPKAQIKESLRAEL [MVF-PD-1(92-110)]", "values": [{"measurement": "anti-APi2568 antibody titers / immunogenicity (summary)", "setting": "cynomolgus monkeys; listed as APi2568", "result": "high and were relatively uniform across sample collection days and between the APi2568 dose groups"}, {"measurement": "anti-APi2568 antibody titers / immunogenicity (summary)", "setting": "cynomolgus monkeys; listed as PD-1(92)", "result": "high immunogenicity"}, {"measurement": "antibody titers in sera (words)", "setting": "beagle dogs", "result": "high titer antibody"}, {"measurement": "antibody titers in sera (words)", "setting": "beagle dogs; listed as PD-1(92)", "result": "high immunogenicity"}, {"measurement": "antibody titers after dosing stopped and after re-challenge", "setting": "beagle dogs; beagle dogs, 4Y boost 6 months after primary immunization", "result": "dropped to very low levels in the absence of dosing but could be recovered if the dog was re-challenged with vaccine"}]}
